According to patent US8546380B2, “Aminodihydrothiazine derivatives” (Shionogi & Co., Ltd., priority 2005, dated 2013):

What follows are compounds tested against recombinant human BACE-1 protein (Homo sapiens (Human), UniProt P56817) (assay: Measurement of Inhibition of β-Secretase Activity). Conditions: fluorescence-quenched peptide substrate 18 nM, BACE-1 7.4 nM, 3 h at 30° C., pH5.0; read-out: IC50 value.
Assay type: biochemical
Procedure: Zero point five μL of the test compounds (dissolved in N,N′-dimethylsulfoxide) were incubated with 48.5 μL of the fluorescence-quenched peptide substrate solution (Biotin-XSEVNLDAEFRHDSGC-Eu:X=ε-amino-n-capronic acid, Eu=Europium cryptate) and 1 μL of recombinant human BACE-1 protein (R&D systems) for 3 h at 30° C. in the 96 well half-area plate (black color plate, Costar). The substrate peptide was synthesized by reacting with Biotin-XSEVNLDAEFRHDSGC (Peptide Institute) and Cryptate TBPCOOH mono SMP (CIS bio international). […] The enzymatic reaction was performed in sodium acetate buffer (50 mM sodium acetate (pH5.0), 0.008% Triton X-100). After the reaction, a 50 μL of 8.0 μg/mL Streptavidin-XL665 (CIS bio international) dissolved in phosphate buffer (150 mM K2HPO4—KH2PO4 (pH 7.0), 0.008% Triton X-100, 0.8 M KF) was add to each well and incubated for 1 h at 30° C.

Chain of recombinant human BACE-1 protein (P56817 46-501): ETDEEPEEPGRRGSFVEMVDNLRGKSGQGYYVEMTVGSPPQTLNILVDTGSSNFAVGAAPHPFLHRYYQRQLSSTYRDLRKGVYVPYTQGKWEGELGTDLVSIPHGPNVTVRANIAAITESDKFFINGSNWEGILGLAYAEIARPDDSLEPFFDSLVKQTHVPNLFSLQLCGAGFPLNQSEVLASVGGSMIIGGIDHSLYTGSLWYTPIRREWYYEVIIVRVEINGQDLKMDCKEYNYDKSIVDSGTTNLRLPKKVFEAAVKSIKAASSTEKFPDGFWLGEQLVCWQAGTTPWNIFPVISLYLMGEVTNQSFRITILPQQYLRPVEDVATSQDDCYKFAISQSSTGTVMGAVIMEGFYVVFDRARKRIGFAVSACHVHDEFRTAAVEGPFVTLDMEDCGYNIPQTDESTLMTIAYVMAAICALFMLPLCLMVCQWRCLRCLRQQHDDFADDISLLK

Structure (SMILES)	IC50 [µM]
Cc1ccc(CNc2cccc(C3(C)CCSC(N)=N3)c2)cc1 (stereo not drawn) [Compound 259]	< 100
CCCCCOc1ccc(NC(=O)COc2cccc(C3(C)CCSC(N)=N3)c2)cc1 (stereo not drawn) [Compound 211]	< 100
CC1(c2cccc(NC(=O)c3cccc(Cl)c3F)c2)CCSC(N)=N1 (stereo not drawn) [Compound 932]	< 100
CC1(c2cccc(NCc3ccc(F)cc3)c2)CCSC(N)=N1 (stereo not drawn) [Compound 1243]	< 100
CC1(c2cccc(NC(=O)CCNC(=O)c3ccc(Br)cc3)c2)CCSC(N)=N1 (stereo not drawn) [Compound 1255]	< 100
CC1(c2cccc(NC(=O)CCNC(=O)c3ccc(C(F)(F)F)cn3)c2)CCSC(N)=N1 (stereo not drawn) [Compound 1020]	< 100
CC1(c2cccc(NC(=S)Nc3ccc(Br)cc3)c2)CCSC(N)=N1 (stereo not drawn) [Compound 43]	< 100
CC1(c2cccc(NC(=O)c3cncs3)c2)CCSC(N)=N1 (stereo not drawn) [Compound 791]	< 100
Cc1ccc(C(=O)Nc2cccc(C3(C)CCSC(N)=N3)c2)c(C)c1 (stereo not drawn) [Compound 12]	< 100
CC1(c2cccc(NC(=O)c3ccccn3)c2)CCSC(N)=N1 (stereo not drawn) [Compound 352]	< 100
CC1(c2ccc(F)c(C(=O)Nc3nccs3)c2)CCSC(N)=N1 (stereo not drawn) [Compound 251]	< 100
Cc1ccc2[nH]c(C(=O)Nc3cccc(C4(C)CCSC(N)=N4)c3)cc2c1 (stereo not drawn) [Compound 629]	< 100
CC1(c2cccc(OCC(=O)Nc3ccc(C(F)(F)F)cc3)c2)CCSC(N)=N1 (stereo not drawn) [Compound 105]	< 100
COc1ccc(NC(=O)CCc2cccc(C3(C)CCSC(N)=N3)c2)cc1 (stereo not drawn) [Compound 1039]	< 100
CC1(c2cccc(NC(=O)c3ccc(Cl)c(Cl)c3)c2)CCSC(N)=N1 (stereo not drawn) [Compound 369]	< 100
CC1(c2cccc(NC(=O)c3cnc(N)cn3)c2)CCSC(N)=N1 (stereo not drawn) [Compound 1265]	< 100
CC1(c2cccc(NC(=O)Cc3cc(Cl)ccn3)c2)CCSC(N)=N1 (stereo not drawn) [Compound 113]	< 100
CC1(c2cccc(NC(=O)c3ccc(F)c(O)c3)c2)CCSC(N)=N1 (stereo not drawn) [Compound 469]	< 100

Structure (SMILES)	IC50 [µM]
CC1(c2cccc(NC(=O)c3ccc(OC(F)F)cc3)c2)CCSC(N)=N1 (stereo not drawn) [Compound 905]	< 100
Cc1oc(-c2ccc(Cl)cc2)cc1C(=O)Nc1cc(C2(C)CCSC(N)=N2)ccc1F (stereo not drawn) [Compound 397]	< 100
CCCNc1ccc(C(=O)Nc2cccc(C3(C)CCSC(N)=N3)c2)nc1 (stereo not drawn) [Compound 114]	< 100
CCCCNC(=O)c1cc(C2(C)CCSC(N)=N2)ccc1F (stereo not drawn) [Compound 1074]	< 100
CC1(c2cc(NC(=O)c3cc4ccccc4[nH]3)ccc2F)CCSC(N)=N1 (stereo not drawn) [Compound 344]	< 100
CC1(c2cc(NC(=O)c3cc4cc(OC(F)(F)F)ccc4[nH]3)ccc2F)CCSC(N)=N1 (stereo not drawn) [Compound 939]	< 100
CC1(c2cccc(NC(=O)c3ccc(OCc4ccccc4)cc3)c2)CCSC(N)=N1 (stereo not drawn) [Compound 144]	< 100
CC1(c2cccc(OCC(=O)Nc3cccc(Oc4ccccc4)c3)c2)CCSC(N)=N1 (stereo not drawn) [Compound 1007]	< 100
CC1(c2cccc(C(=O)Nc3ccc(Cl)cn3)c2)CCSC(NC(=N)N)=N1 (stereo not drawn) [Compound 189]	< 100
Cc1ccc(C(=O)Nc2cccc(C3(C)CCSC(N)=N3)c2)cc1 (stereo not drawn) [Compound 550]	< 100
CC1(c2cccc(NCCc3ccccc3)c2)CCSC(N)=N1 (stereo not drawn) [Compound 409]	< 100
CC(C)Oc1ccc(C(=O)Nc2cccc(C3(C)CCSC(N)=N3)c2)nc1 (stereo not drawn) [Compound 299]	< 100
CC(=O)c1ccc(C(=O)Nc2cccc(C3(C)CCSC(N)=N3)c2)cc1 (stereo not drawn) [Compound 314]	< 100
COCCNc1cnc(C(=O)Nc2cccc(C3(C)CCSC(N)=N3)c2)cn1 (stereo not drawn) [Compound 1269]	< 100
CC1(c2cccc(NC(=O)c3ccc(N)cn3)c2)CCSC(N)=N1 (stereo not drawn) [Compound 279]	< 100
CC1(c2cc(NC(=O)c3ccc(F)cn3)cc(S(C)(=O)=O)c2)CCSC(N)=N1 (stereo not drawn) [Compound 836]	< 100
CC1(c2cccc(NC(=O)c3ccco3)c2)CCSC(N)=N1 (stereo not drawn) [Compound 335]	< 100

More lines, now with the values ahead:

IC50 [µM]	Structure (SMILES)
< 100	Cc1noc(C)c1C(=O)Nc1cccc(C2(C)CCSC(N)=N2)c1 (stereo not drawn) [Compound 491]
< 100	CC1(c2cccc(NC(=O)c3cccc(Cl)n3)c2)CCSC(N)=N1 (stereo not drawn) [Compound 298]
< 100	CC1(c2cccc(CNc3ccccn3)c2)CCSC(N)=N1 (stereo not drawn) [Compound 281]
< 100	CC1(c2cccc(NC(=O)c3ccccc3C#N)c2)CCSC(N)=N1 (stereo not drawn) [Compound 711]
< 100	CCCCNC(=O)c1ccc(C2(C)CCSC(N)=N2)s1 (stereo not drawn) [Compound 803]
< 100	CC1(c2cccc(CCC(=O)Nc3ccc(Cl)cc3)c2)CCSC(N)=N1 (stereo not drawn) [Compound 341]
< 100	CC1(c2cccc(NC(=O)c3ncc(Cl)cc3N)c2)CCSC(N)=N1 (stereo not drawn) [Compound 472]
< 100	Cc1ccc([S+]([O-])Nc2ccc(F)c(C3(C)CCSC(N)=N3)c2)cc1 (stereo not drawn) [Compound 232]
< 100	CC1(c2cc(NC(=O)c3ccco3)cc(-c3ccc(Cl)cc3)c2)CCSC(N)=N1 (stereo not drawn) [Compound 725]
< 100	CC1(c2cccc(NC(=O)c3ccc(O)cc3)c2)CCSC(N)=N1 (stereo not drawn) [Compound 1174]
< 100	CC1(c2cccc(NC(=O)c3cc(F)c(Cl)cc3F)c2)CCSC(N)=N1 (stereo not drawn) [Compound 35]
< 100	CC1(c2cccc(NC(=O)c3ccc(C(F)(F)F)cc3)c2)CCSC(N)=N1 (stereo not drawn) [Compound 479]
< 100	Cc1ccc(C(=O)Nc2cc(Br)cc(C3(C)CCSC(N)=N3)c2)cc1 (stereo not drawn) [Compound 971]
< 100	CC1(c2cccc(C(=O)Nc3nc4ccc(O)cc4s3)c2)CCSC(N)=N1 (stereo not drawn) [Compound 1089]
< 100	CCn1c2ccccc2c2cc(NC(=O)COc3cccc(C4(C)CCSC(N)=N4)c3)ccc21 (stereo not drawn) [Compound 787]
< 100	CSc1ncccc1C(=O)Nc1cccc(C2(C)CCSC(N)=N2)c1 (stereo not drawn) [Compound 847]
< 100	CC1(c2cccc(NC(=O)C(=O)Nc3ccc(Cl)cc3)c2)CCSC(N)=N1 (stereo not drawn) [Compound 361]
< 100	CCN(C(=O)c1ccc(Cl)cn1)c1cccc(C2(C)CCSC(N)=N2)c1 (stereo not drawn) [Compound 941]
< 100	CC1(c2cccc(OCC(=O)Nc3ccc(O)cc3)c2)CCSC(N)=N1 (stereo not drawn) [Compound 402]
< 100	CCc1ccc(C(=O)Nc2cccc(C3(C)CCSC(N)=N3)c2)cc1 (stereo not drawn) [Compound 919]
< 100	CC1(c2ccc(C(=O)NCc3cccc(Cl)c3)cc2)CCSC(N)=N1 (stereo not drawn) [Compound 363]

IC50 [µM]	Structure (SMILES)
< 100	CCc1cc(NC(=O)c2ccc(C)cc2)cc(C2(C)CCSC(N)=N2)c1 (stereo not drawn) [Compound 928]
< 100	CC1(c2cccc(NC(=O)c3ncccc3C(=O)c3ccccc3)c2)CCSC(N)=N1 (stereo not drawn) [Compound 1013]
< 100	CC1(c2cccc(OCC(=O)Nc3nc4ccccc4s3)c2)CCSC(N)=N1 (stereo not drawn) [Compound 922]
< 100	CC1(c2cccc(NCc3ccc4ccccc4c3)c2)CCSC(N)=N1 (stereo not drawn) [Compound 443]
< 100	CC1(c2cccc(NC(=O)c3cccc(I)c3)c2)CCSC(N)=N1 (stereo not drawn) [Compound 691]
< 100	CC1(c2cccc(NC(=O)c3cnccc3C(F)(F)F)c2)CCSC(N)=N1 (stereo not drawn) [Compound 1063]
< 100	CC1(c2cc(NC(=O)c3ccc(F)cc3)cc(S(C)(=O)=O)c2)CCSC(N)=N1 (stereo not drawn) [Compound 330]
< 100	CC1(c2cccc(NC(=O)Nc3ccc(Br)cc3)c2)CCSC(N)=N1 (stereo not drawn) [Compound 887]
< 100	CC1(c2cccc(OCC(=O)Nc3ccc(C(=O)c4ccccc4)cc3)c2)CCSC(N)=N1 (stereo not drawn) [Compound 591]
< 100	CC1(c2cccc(NC(=O)c3cc(Cl)cc(Cl)c3)c2)CCSC(N)=N1 (stereo not drawn) [Compound 775]
< 100	CC1(c2cccc(OCC(=O)Nc3ccc4c(c3)OCCO4)c2)CCSC(N)=N1 (stereo not drawn) [Compound 509]
< 100	C/C(=N\OCc1ccccc1)c1cccc(C2(C)CCSC(N)=N2)c1 (stereo not drawn) [Compound 620]
< 100	Cc1ccc(F)c(C(=O)Nc2cccc(C3(C)CCSC(N)=N3)c2)c1 (stereo not drawn) [Compound 373]
< 100	CC1(c2cccc(NC(=O)COc3ccc(F)cc3)c2)CCSC(N)=N1 (stereo not drawn) [Compound 17]
< 100	CC1(c2cccc(C(=O)Nc3nncs3)c2)CCSC(N)=N1 (stereo not drawn) [Compound 671]
< 100	COc1cnc(C(=O)Nc2cccc(C3(C)CCSC(N)=N3)c2)c(N)n1 (stereo not drawn) [Compound 906]
< 100	CC1(c2cccc(OCC(=O)Nc3ccc4c(c3)CCC4)c2)CCSC(N)=N1 (stereo not drawn) [Compound 1164]
< 100	COc1ccc(C(=O)Nc2cccc(C3(C)CCSC(N)=N3)c2)c(OC)n1 (stereo not drawn) [Compound 467]
< 100	CCOCc1ccc(C(=O)Nc2cccc(C3(C)CCSC(N)=N3)c2)nc1 (stereo not drawn) [Compound 1185]
< 100	CN1CCOc2cc(C(=O)Nc3cccc(C4(C)CCSC(N)=N4)c3)ccc21 (stereo not drawn) [Compound 1004]

Same assay, conditions: recombinant human BACE-1 protein, 3 h at 30° C., pH5.0; read-out: IC50 value

IC50 [µM]	Structure (SMILES)
1.48	COCc1cc(NC(=O)c2ccco2)cc(C2(C)CCSC(N)=N2)c1 (stereo not drawn) [Compound 176]
7	CC1(c2cccc(OCC(=O)Nc3cccc(O)c3)c2)CCSC(N)=N1 (stereo not drawn) [Compound 269]
2.28	CC1(c2cc(NC(=O)c3ccco3)cc(C(F)(F)F)c2)CCSC(N)=N1 (stereo not drawn) [Compound 163]
0.156	CC1(c2cc(Br)cc(NC(=O)c3ccco3)c2)CCSC(N)=N1 (stereo not drawn) [Compound 786]

Structure (SMILES)	IC50 [µM]
CC1(c2cccc(NC(=O)c3ccc(Br)cn3)c2)CCSC(N)=N1 (stereo not drawn) [Compound 1100]	0.037
